Results as given in US6063778A, “Cephalosporin derivatives and processes for the preparation thereof” (Il-Dong Pharm. Co., Ltd., priority 1995, dated 2000).
Values after ≈ are worked out from the molar mass of the structure shown. Read-outs that look alike come from different tables or passages of the source.

How the values were obtained:
[1] = system: Enterobacter cloace 1321E; assay: MIC by agar dilution, in vitro activity test; assay type: cell-based; conditions: 37° C., 18 to 20 hours, read-out: Minimal Inhibitory Concentration (MIC)
Protocol: (§1) These MIC values were determined by agar dilution method: that is, two-fold dilutions of each of the test compounds were made and dispersed in a Mueller-Hinton Broth medium. Standard test strain which had the 10^6 CFU per ml was inoculated on the medium, and was incubated at 37° C. for 18 to 20 hours.

[2] = system: Enterobacter cloace P99; assay: MIC by agar dilution, in vitro activity test; assay type: cell-based; conditions: P99, 20 h, read-out: Minimal Inhibitory Concentration (MIC)
Protocol: as §1

[3] = system: Escherichia coli 078; assay: MIC by agar dilution, in vitro activity test; assay type: cell-based; conditions: 37° C., 18 to 20 hours, read-out: Minimal Inhibitory Concentration (MIC)
Protocol: as §1

[4] = system: Escherichia coli 1507E; assay: MIC by agar dilution, in vitro activity test; assay type: cell-based; conditions: Escherichia coli 1507E; agar dilution, 37° C., 18 to 20 hours; read-out: Minimal Inhibitory Concentration (MIC)
Protocol: as §1

[5] = system: Escherichia coli DC 0; assay: MIC by agar dilution, in vitro activity test; assay type: cell-based; conditions: DC0, 37° C., 18 to 20 hours, read-out: Minimal Inhibitory Concentration (MIC)
Protocol: as §1

[6] = system: Escherichia coli DC 2; assay: MIC by agar dilution, in vitro activity test; assay type: cell-based; conditions: DC2, 37° C., 18 to 20 hours, read-out: Minimal Inhibitory Concentration (MIC)
Protocol: as §1

[7] = system: Escherichia coli TEM; assay: MIC by agar dilution, in vitro activity test; assay type: cell-based; conditions: 20 h, read-out: Minimal Inhibitory Concentration (MIC)
Protocol: as §1

[8] = system: Klebsiella aerogenes 1082E; assay: MIC by agar dilution, in vitro activity test; assay type: cell-based; conditions: 37° C., 18 to 20 hours, read-out: Minimal Inhibitory Concentration (MIC)
Protocol: as §1

[9] = system: Klebsiella aerogenes 1522E; assay: MIC by agar dilution, in vitro activity test; assay type: cell-based; conditions: Klebsiella aerogenes 1522E; agar dilution, 37° C., 18 to 20 hours; read-out: Minimal Inhibitory Concentration (MIC)
Protocol: as §1

[10] = system: Pseudomonas aeruginosa 1592E; assay: MIC by agar dilution, in vitro activity test; assay type: cell-based; conditions: 37° C., 18 to 20 hours, read-out: Minimal Inhibitory Concentration (MIC)
Protocol: as §1

[11] = system: Pseudomonas aeruginosa 1771M; assay: MIC by agar dilution, in vitro activity test; assay type: cell-based; conditions: 20 h, read-out: Minimal Inhibitory Concentration (MIC)
Protocol: as §1

[12] = system: Pseudomonas aeruginosa 9071; assay: MIC by agar dilution, in vitro activity test; assay type: cell-based; conditions: 37° C., 18 to 20 hours, read-out: Minimal Inhibitory Concentration (MIC)
Protocol: as §1

[13] = system: Salmonella typhimurium; assay: MIC by agar dilution, in vitro activity test; assay type: cell-based; conditions: Salmonella enterica, 37° C., 18 to 20 hours, read-out: Minimal Inhibitory Concentration (MIC)
Protocol: as §1

[14] = system: Staphylococcus aureus 285; assay: MIC by agar dilution, in vitro activity test; assay type: cell-based; conditions: 37° C., 18 to 20 hours, read-out: Minimal Inhibitory Concentration (MIC)
Protocol: as §1

[15] = system: Staphylococcus aureus 503; assay: MIC by agar dilution, in vitro activity test; assay type: cell-based; conditions: 37° C., 18 to 20 hours, read-out: Minimal Inhibitory Concentration (MIC)
Protocol: as §1

[16] = system: Staphylococcus aureus SG511; assay: MIC by agar dilution, in vitro activity test; assay type: cell-based; conditions: 37° C., 18 to 20 hours, read-out: Minimal Inhibitory Concentration (MIC)
Protocol: as §1

[17] = system: Streptococcus faecium MD 8b; assay: MIC by agar dilution, in vitro activity test; assay type: cell-based; conditions: Enterococcus faecium, MD8B, 20 h, read-out: Minimal Inhibitory Concentration (MIC)
Protocol: as §1

[18] = system: Streptococcus pyogenes 71A; assay: MIC by agar dilution, in vitro activity test; assay type: cell-based; conditions: 37° C., 18 to 20 hours, read-out: Minimal Inhibitory Concentration (MIC)
Protocol: as §1

[19] = system: Pseudomonas aeruginosa 1771; assay: MIC by agar dilution, in vitro activity test; assay type: cell-based; conditions: 37° C., 18 to 20 hours, read-out: Minimal Inhibitory Concentration (MIC)
Protocol: These MIC values were determined by agar dilution method: that is, two-fold dilutions of each of the test compounds were made and dispersed in a Mueller-Hinton Broth medium.

[20] = system: Pseudomonas aeruginosa; assay: MIC by agar dilution, comparison in words; assay type: cell-based; conditions: against Pseudomonas aeruginosa; vs Cefpirome
Protocol: as §1

[21] = Acute toxicity study; assay type: in vivo; conditions: mouse, in vivo
Protocol: In order to illustrate usefulness of the compounds of the present invention, acute toxicity test of the compounds synthesized in the above Examples were carried out. Each dose of the compounds dissolved in saline and buffer solution (PH=7.0) was administered by intravenous or subcutaneous injection. Mortalities of the animals was recorded seven days latter.
.asterisk-pseud. Mouse: Male ICR strain, 4 weeks

Structure (SMILES): CC[N+](C)(CC=CC(N)=O)C/C=C/C1=C(C(=O)[O-])N2C(=O)[C@@H](NC(=O)/C(=N\OC)c3nsc(N)n3)[C@H]2SC1 (stereo partly drawn) [Example 13, 7β-[(Z)-2-(5-amino-1,2,4-thiadiazol-3-yl)-2-methoxyiminoacetamido]-3-[(E)-3-[(1-carbamoyl-1-propen-3-yl)-3-ethylmethylammonio]-1-propen-1-yl]3-cephem-4-carboxylate]
- MIC [1]: 0.05 µg/mL (≈ 0.0886 µM)
- MIC [2]: 1.6 µg/mL (≈ 2.83 µM)
- MIC [3]: 0.05 µg/mL (≈ 0.0886 µM)
- MIC [4]: 0.1 µg/mL (≈ 0.177 µM)
- MIC [5]: 0.025 µg/mL (≈ 0.0443 µM)
- MIC [6]: 0.2 µg/mL (≈ 0.354 µM)
- MIC [7]: 0.05 µg/mL (≈ 0.0886 µM)
- MIC [8]: 3.1 µg/mL (≈ 5.49 µM)
- MIC [9]: 0.2 µg/mL (≈ 0.354 µM)
- MIC [10]: 1.6 µg/mL (≈ 2.83 µM)
- MIC [11]: 0.4 µg/mL (≈ 0.708 µM)
- MIC [12]: 3.1 µg/mL (≈ 5.49 µM)
- MIC [13]: 0.2 µg/mL (≈ 0.354 µM)
- MIC [14]: 0.8 µg/mL (≈ 1.42 µM)
- MIC [15]: 0.8 µg/mL (≈ 1.42 µM)
- MIC [16]: 0.8 µg/mL (≈ 1.42 µM)
- MIC [17]: > 100 µg/mL
- MIC [18]: 0.025 µg/mL (≈ 0.0443 µM)
- MIC [19]: 1.6 µg/mL (≈ 2.83 µM)
- MICs compared with Cefpirome [20]: superior to that of Cefpirome
- LD50 at 168 h ([21]; iv, i.v, male ICR mouse, 4 weeks, mortality at seven days, read-out: LD50 i.v): > 2000 mg/kg
- LD50 at 168 h ([21]; iv, intravenous routes, read-out: acute toxicity in intravenous routes): > 2000 mg/kg
- LD50 at 168 h ([21]; sc, s.c, male ICR mouse, 4 weeks, mortality at seven days, read-out: LD50 s.c): > 3000 mg/kg
